Series [1] has as its system right and left humeri (radii and ulnae) of rat fetus. The series is described as follows: Bone resorption inhibition: 45Ca release from fetal rat bone in culture (method of Raisz). To be noted: for activity at 10 µg/mL: Rattus norvegicus, 48 h, read-out: 45Ca released (% of control value). The class given is cell-based, Sprague-Dawley rat.
Description: Thus, a Sprague-Dawley rat at day 19 of pregnancy was subcutaneously dosed with 50 μCi of ^45 Ca (a radioisotope of calcium, in CaCl2). On the next day, the animal was laparotomized and the fetuses were removed aseptically. The right and left humeri (radii and ulnae) of each rat fetus were dissected from the body under the dissection microscope. The connective tissue and cartilages were removed as far as possible to prepare bone culture specimens. Each piece of bone was incubated in 0.6 ml of BGJb medium Fitton-Jackson modification (the tradename owned by GIBCO Laboratories, U.S.A.) containing 2 mg/ml of bovine serum albumin at 37° C. for 24 hours. […] The radioactivities of ^45 Ca in the culture medium and bone were determined and the ratio (%) of ^45 Ca released from the bone to the medium was calculated according to the following formula. […] A=ratio (%) of ^45 Ca released from the bone to the medium B=^45 Ca count in the medium
C=^45 Ca count in the bone
The bones from the fetuses of the same litter were similarly incubated without addition of the test compound for two days and served as controls.
The values for 5 bones per group were expressed in mean. The ratio (%) of this value for the treatment group to the control value was determined.
The test system of series [2] is mice. The series is described as follows: Oral toxicity in mice. The class given is in vivo. Particulars: 300 mg/kg. From the text:
The compound (I) and salt according to the present invention has excellent bone resorption inhibitory activity. Thus, they have the action to inhibit the dissolution and diminution of bone in the body. Furthermore, compound (I) and salts thereof have bone formation promoting activity.

In series [3] the test system is oophorectomized Sprague-Dawley rats, right femur. In words: Treatment of osteoporosis in oophorectomized rats (femur bone density, dry weight, ashes). The class given is in vivo. Particulars: daily dose 100 mg/kg orally; for Ashes / Dry weight: 18 doses, distal 1/3 of right femur. The method, then:
Study on Treatment of Osteoporosis
Oophorectomy was performed on Sprague-Dawley rats at 10 weeks of age and starting from the following day, the rats were orally dosed with the test compound 6 days a week for 3 weeks, or a total of 18 days. On the day following the last dosing, the right femur was removed from each rat and subjected to soft X-ray photography with a soft X-ray apparatus (Softex CSM, Softex). Using a microdensitometer (PDM-5, Konica Medical), the transverse section of the femur on the soft X-ray film was scanned at a point one-fifth from the distal end (metaphysis) and from the density wave pattern, bone density was calculated according to the microdensitometric method described by Inoue et al. [Journal of Japanese Orthopedic Association (J Jpn. Orthop. Ass.) 57, 1923 (1983)].
After soft X-ray photographing, the 1/3 distal part of the femur was sectioned off at right angles with the major axis. After the bone marrows were washed off with a rinse pump, the femur section was put into a porcelain crucible, placed in a oven and dried at 110° C. for 24 hours. The dry weight was then determined.
The porcelain crucible containing the bone was transferred to a muffle furnace (FP-41, Yamato Chemicl) and heated at 500° C. for 3 hours and at 800° C. for 2 hours for calcification of the bone and the ashes were weighed.
The mean ± standard errors of the measured values for the right femurs of 7 rats per group were determined.

Setting [4] is: final concentration 10 μg/ml, two additional days at 37° C., mean of 5 bones per group, lower = more inhibition.
The mark [5] stands for this setting: Table 4, oophorectomy control 76.3, sham 85.7.
The mark [6] stands for this setting: Table 4, oophorectomy control 114.2, sham 131.4.

The structures appear in SMILES notation. Where two headings read alike, the source gives them in different places.

With `CCOP(=O)(Cc1ccc(NC(=O)[C@@H]2S[C@@H](C)C(=O)c3cc(C4CCCCC4)ccc32)cc1)OCC` (relative stereo) [Example 23], the activity at 10 µg/mL in series [1] worked out at 65%.
As to `O=C1CSC(C(=O)O)c2ccc(Cl)cc21` (stereo not drawn) [Example 1, 6-chloro-3,4-dihydro-1H-2-benzothiopyran-4-one-1-carboxylic acid], in series [1] (setting [4]), the activity at 10 µg/mL turned out to be 84%.
As for `O=C1CSC(C(=O)Nc2cccnc2)c2ccc(C3CCCCC3)cc21` (stereo not drawn) [Example 10, 6-cyclohexyl-N-(3-pyridyl)-3,4-dihydro-1H-2-benzothiopyran-4-one-1-carboxamide], in series [1] (setting [4]), the activity at 10 µg/mL was 62%.
On the same count and under the same terms, the value for `O=C1CSC(C(=O)Nc2nccs2)c2ccc(C3CCCCC3)cc21` (stereo not drawn) [Example 12] was 84%.
Take `COc1ccc(-c2csc(NC(=O)C3SCC(=O)c4cc(C5CCCCC5)ccc43)n2)cc1OC` (stereo not drawn) [Example 14]: the activity at 10 µg/mL in series [1] (setting [4]) came to 81%.
On to `O=C1CSC(C(=O)N2CCN(c3ccc(F)cc3)CC2)c2ccc(C3CCCCC3)cc21` (stereo not drawn) [Example 18], for which the death result in series [2] is “no death was encountered”.
In the case of `O=C1CSC(C(=O)Nc2ccc3c(c2)OCO3)c2ccc(C3CCCCC3)cc21` (stereo not drawn) [Example 19], in series [1] (setting [4]), the activity at 10 µg/mL came to 70%.
As for `O=C1CSC(C(=O)Nc2ccc(Cl)cc2)c2ccc(C3CCCCC3)cc21` (stereo not drawn) [Example 21], the activity at 10 µg/mL in series [1] (setting [4]) was determined as 73%.
In the case of `CCOP(=O)(Cc1ccc(NC(=O)C2SCC(=O)c3cc(C4CCCCC4)ccc32)cc1)OCC` (stereo not drawn) [Example 22], the activity at 10 µg/mL in series [1] came out at 57%. In addition, the death entry in series [2] is recorded as “no death was encountered”. In addition, the Ashes in series [3] (Table 2, oophorectomy control 74.3, sham 80.0) is given as 82.4 mg. For the same compound, the Dry weight in series [3] (Table 2, oophorectomy control 107.7, sham 116.2) was found to be 120.0 mg. This compound also returned a Bone density in series [3] (Table 2, 6 days a week for 3 weeks, femur metaphysis, oophorectomy control 1.062, sham 1.304) of 1.336.
As to `COc1ccc(NC(=O)C2SCC(=O)c3cc4c(cc32)CCCC4)cc1OC` (stereo not drawn) [Example 28], in series [1] (setting [4]), the activity at 10 µg/mL came to 79%.
As for `O=C1CSC(C(=O)N2CCN(c3ccc(F)cc3)CC2)c2cc3c(cc21)CCCC3` (stereo not drawn) [Example 30], the activity at 10 µg/mL in series [1] (setting [4]) stood at 75%.
With `COP(=O)(OC)c1ccc(NC(=O)C2SCC(=O)c3cc4c(cc32)CCCC4)cc1` (stereo not drawn) [Example 31], the activity at 10 µg/mL in series [1] came to 64%.
Still for that read-out and setting: for `CCOP(=O)(OCC)c1ccc(NC(=O)C2SCC(=O)c3cc4c(cc32)CCCC4)cc1` (stereo not drawn) [Example 33] the value was 53%; for `CCOP(=O)(Cc1ccc(NC(=O)C2SCC(=O)c3cc4c(cc32)CCCC4)cc1)OCC` (stereo not drawn) [Example 35], 58%.
The same measure, in the same setting: for `CC(C)OP(=O)(Cc1ccc(NC(=O)C2SCC(=O)c3cc4c(cc32)CCCC4)cc1)OC(C)C` (stereo not drawn) [Example 36] the value was 73%; for `CCOP(=O)(OCC)c1ccc(NC(=O)C2SCC(=O)c3cc(Cl)ccc32)cc1` (stereo not drawn) [Example 46], 76%; for `CCCOP(=O)(OCCC)c1ccc(NC(=O)C2SCC(=O)c3cc4c(cc32)OCCO4)cc1` (stereo not drawn) [Example 50], 73%.
In the case of `COc1ccc(CCN(C)C(=O)C2SCC(=O)c3cc(C4CCCCC4)ccc32)cc1OC` (stereo not drawn) [Example 55], the activity at 10 µg/mL in series [1] (setting [4]) was 78%.
Regarding `CCOP(=O)(OCC)c1ccc(NC(=O)C2Cc3ccc(C4CCCCC4)cc3C(=O)CS2)cc1` (stereo not drawn) [Example 56, 7-cyclohexyl-N-(4-diethoxyphosphorylphenyl)-1,2,4,5-tetrahydro-3-benzothiepin-5-one-2-carboxamide], the activity at 10 µg/mL in series [1] came out at 76%.
Take `O=C(Nc1ccc2c(c1)OCO2)C1SCC(O)c2ccc(C3CCCCC3)cc21` (stereo not drawn) [Example 59, 7-cyclohexyl-N-(3,4-methylenedioxyphenyl)-c-4-hydroxy-3,4-dihydro-1H-2-benzothiopyran-r-1-carboxamide]: the “45Ca released (% of control value)” value in series [1] (final concentration 10 μg/ml, two additional days at 37° C., mean of 5 bones per group, lower = more inhibition, 2880 min) was 64 % of control value.
As for `CCOP(=O)(Cc1ccc(NC(=O)C2SCC(=O)c3cc(C4CCCC4)ccc32)cc1)OCC` (stereo not drawn) [Example 132], the activity at 10 µg/mL in series [1] was 57%.
As to `CCOP(=O)(Cc1ccc(NC(=O)C2SCC(=O)c3cc(C4CCCCCC4)ccc32)cc1)OCC` (stereo not drawn) [Example 138], the activity at 10 µg/mL in series [1] is 63%.
Regarding `CCOP(=O)(Cc1ccc(NC(=O)C2SCC(=O)c3cc(C)ccc32)cc1)OCC` (stereo not drawn) [Example 140], the activity at 10 µg/mL in series [1] was found to be 61%.
Turning to `CCOP(=O)(OCC)c1ccc(NC(=O)C2SCC(=O)c3cc(C(C)C)ccc32)cc1` (stereo not drawn) [Example 141], the activity at 10 µg/mL in series [1] is 57%.
Consider `CCOP(=O)(OCC)c1ccc(NC(=O)C2SCC(=O)c3cc(C(C)(C)C)ccc32)cc1` (stereo not drawn) [Example 143], for which, in series [1], the activity at 10 µg/mL amounted to 44%.
As for `CCOP(=O)(CCc1ccc(NC(=O)C2SCC(=O)c3cc(C(C)(C)C)ccc32)cc1)OCC` (stereo not drawn) [Example 144], in series [1], the activity at 10 µg/mL worked out at 52%.
Regarding `CCOP(=O)(Cc1ccc(NC(=O)C2SCC(=O)c3cc(C(C)(C)CC)ccc32)cc1)OCC` (stereo not drawn) [Example 146], in series [1], the activity at 10 µg/mL came to 62%. The compound further registered an Ashes in series [3] (Table 3, oophorectomy control 74.3, sham 88.3) of 84.1 mg. For the same compound, the Dry weight in series [3] (Table 3, oophorectomy control 112.3, sham 130.4) came out at 128.2 mg.
`CCOP(=O)(Cc1ccc(NC(=O)C2SCC(=O)c3c(C)ccc(C)c32)cc1)OCC` (stereo not drawn) [Example 150]: in series [1], the activity at 10 µg/mL was 71%.
With `Cc1cc(C)c2c(c1)C(=O)CSC2C(=O)Nc1ccc(Cl)cc1` (stereo not drawn) [Example 153], the activity at 10 µg/mL in series [1] (setting [4]) turned out to be 63%.
Consider `Cc1cc2c(cc1C)C(C(=O)Nc1ccc(Cl)c(Cl)c1)SCC2=O` (stereo not drawn) [Example 155], for which the activity at 10 µg/mL in series [1] (setting [4]) was 80%.
On the same count and under the same terms, for `Cc1cc2c(cc1C)C(C(=O)Nc1ccc(C)c(Cl)c1)SCC2=O` (stereo not drawn) [Example 157] the value was 71%.
For `COP(=O)(OC)c1ccc(NC(=O)C2SCC(=O)c3cc(C)c(C)cc32)cc1` (stereo not drawn) [Example 160], the activity at 10 µg/mL in series [1] came to 54%.
As for `CCOP(=O)(OCC)c1ccc(NC(=O)C2SCC(=O)c3cc(C)c(C)cc32)cc1` (stereo not drawn) [Example 161], the activity at 10 µg/mL in series [1] worked out at 50%. Further, the Ashes in series [3] (setting [5]) stood at 83.7 mg. This compound showed a Dry weight in series [3] (setting [6]) of 127.5 mg.
Consider `CCOP(=O)(Cc1ccc(NC(=O)C2SCC(=O)c3cc(C)c(C)cc32)cc1)OCC` (stereo not drawn) [Example 163], for which the activity at 10 µg/mL in series [1] came to 50%. The compound also registered an Ashes in series [3] (setting [5]) of 82.3 mg. For the same compound, the Dry weight in series [3] (setting [6]) was determined as 127.6 mg.
On to `O=C1CSC(C(=O)Nc2ccc(Cl)cc2)c2cc3c(cc21)CCC3` (stereo not drawn) [Example 183], for which the activity at 10 µg/mL in series [1] (setting [4]) came out at 47%.
As for `CCOP(=O)(Cc1cccc(NC(=O)C2SCC(=O)c3cc4c(cc32)CCCC4)c1)OCC` (stereo not drawn) [Example 191], the activity at 10 µg/mL in series [1] was 58%.
As for `CCOP(=O)(OCC)c1ccc(NC(=O)C2SCC(=O)c3cc4c(cc32)CCCCC4)cc1` (stereo not drawn) [Example 198], the activity at 10 µg/mL in series [1] is 62%.
For `CCOP(=O)(NC(=O)C1SCC(=O)c2cc(C3CCCCC3)ccc21)OCC` (stereo not drawn) [Example 201, 6-cyclohexyl-N-diethoxyphosphoryl-3,4-dihyiro-1H-2-benzothiopyran-4-one-1-carboxamide], in series [1], the activity at 10 µg/mL was found to be 65%.

For the origin of these results see patent publication US5071841A, “Sulfur-containing heterocyclic compounds useful for the treatment of osteoporosis, and their production” (priority 1988, dated 1991).
